Assay results published in BindingDB's records for PubMed 1828505 (University of Pennsylvania, 1991).
pKi: −log10 of the molar value. Values joined by “and” are separate entries in the source; they are usually repeats but may differ in a detail not shown here. Identical values can stand only once.

Biological target: D(2) dopamine receptor (Homo sapiens, UniProt P14416)
Sequence (P14416 whole entry): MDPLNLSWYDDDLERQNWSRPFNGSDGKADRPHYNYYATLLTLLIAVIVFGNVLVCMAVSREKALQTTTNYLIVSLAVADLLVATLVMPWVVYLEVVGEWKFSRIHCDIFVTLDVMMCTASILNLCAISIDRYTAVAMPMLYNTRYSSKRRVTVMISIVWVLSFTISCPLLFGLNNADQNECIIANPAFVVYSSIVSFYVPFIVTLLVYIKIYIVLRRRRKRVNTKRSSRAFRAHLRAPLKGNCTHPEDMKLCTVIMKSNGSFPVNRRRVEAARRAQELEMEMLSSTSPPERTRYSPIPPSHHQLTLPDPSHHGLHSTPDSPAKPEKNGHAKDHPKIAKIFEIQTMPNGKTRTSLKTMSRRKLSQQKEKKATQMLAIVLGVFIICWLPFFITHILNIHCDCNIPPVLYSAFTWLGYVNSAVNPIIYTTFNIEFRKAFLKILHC

pKi: 9.22 and 8.64 and 9.18 and 9.14 and 8.60
Structure (SMILES): OCCN1CCN(CC/C=C2/c3ccccc3Sc3ccc(C(F)(F)F)cc32)CC1 [(cis) 2-{4-[3-(2-Trifluoromethyl-thioxanthen-9-ylidene)-propyl]-piperazin-1-yl}-ethanol(Flupentixol)]
